One may read the mortality as the share of the test organisms that died.

Data on six compounds can be found in patent publication US20230065953A1, “NOVEL HETEROARYL-TRIAZOLE COMPOUNDS AS PESTICIDES” (Bayer Aktiengesellschaft, priority 2019, published 2023).

Common to all, as to type: in vivo
The subject of test [1] is Rhipicephalus microplus larvae (strain Parkhurst, resistant against synthetic pyrethroids). Put plainly: Rhipicephalus (Boophilus) microplus in-vitro contact test, larval cattle tick. The following applies: 5 μg/cm^2 (=500 g/ha), after 48 hours, read-out: efficacy (larvae dead or moribund). The method, boiled down:
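Larvae (20–50 per tube) were exposed for 48 h at 27 °C and 85% relative humidity to dried acetone residues lining glass tubes, where 900 ppm corresponds to 5 μg/cm^2. Loss of negative geotaxis defined dead or moribund larvae, expressed as percent efficacy.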

Test [2] concerns adult engorged female ticks (Rhipicephalus microplus). The experiment in a line: Rhipicephalus (Boophilus) microplus injection test. Conditions: 168 h, egg deposition after 7 days, read-out: efficacy (infertile eggs); for pest or weed control at 0.004 mg: 4 μg/animal. The method, boiled down:
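Five adult engorged female ticks each injected into the abdomen with 1 μL of compound in DMSO, then kept in a climate chamber. Fertile egg deposition assessed after 7 days, with unclear eggs held until hatching around 42 days; efficacy 100% means all eggs infertile, 0% all fertile.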

Test [3] concerns adult cat fleas (Ctenocephalides felis). Put plainly: Ctenocephalides felis in-vitro contact test, adult cat flea. The following applies: 5 μg/cm^2 (=500 g/ha), after 48 hours. Put shortly:
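After 48 h of room-temperature exposure in tubes whose walls carried dried compound residue (5 μg/cm^2, from 900 ppm acetone solution), adult cat fleas (5-10 per tube) were heat-challenged at 45-50° C up to 5 min. Fleas unable to climb away were counted dead or moribund, expressed as % efficacy.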

In test [4] the test system is adult brown dog ticks (Rhipicephalus sanguineus). Put plainly: Rhipicephalus sanguineus in-vitro contact test with adult brown dog ticks. The following applies: 5 μg/cm^2 (=500 g/ha), after 48 hours, read-out: efficacy (ticks dead or moribund). The method, boiled down:
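Read-out: % efficacy as dead or moribund ticks, judged 48 h after exposure by failure to climb away from a 45-50° C heating plate within 5 min. Tubes were coated with acetone solution (900 ppm = 5 μg/cm^2 surface dose) and held 5-10 adults each at room temperature.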

The subject of test [5] is larvae of the banded cucumber beetle (Diabrotica balteata). The experiment in a line: Diabrotica balteata spray test. Conditions: 168 h, 100 g/ha (=32 μg/well), wheat seeds, after 7 days, read-out: efficacy (seedling growth). Put shortly:
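Efficacy in % was read 7 days after infesting with 10-20 larvae per unit. Before infestation, 1-day-germinated wheat seedlings (5 per well) were sprayed with the active ingredient, formulated in acetone and dimethylformamide plus emulsifier and diluted with water containing emulsifier.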

In test [6] the test system is green peach aphid (Myzus persicae). Put plainly: Myzus persicae oral test. The following applies: 120 h. Put shortly:
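Compound was dissolved in acetone, diluted with water and mixed into IPL41 insect medium with sugar under a parafilm seal. A mixed aphid population fed through the parafilm, and mortality (%) was scored after 5 days.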

In test [7] the test system is fall armyworm larvae (Spodoptera frugiperda). The experiment in a line: Spodoptera frugiperda spray test (maize leaf sections). The following applies: 168 h. Put shortly: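 Percent kill of Spodoptera frugiperda caterpillars read at day 7. Larvae placed on dried Zea mays leaf pieces previously sprayed with test preparation, made from acetone plus DMF and diluted with emulsifier-containing water (1000 ppm).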

Test [8] relates to adult flies Musca domestica strain WHO-N. The experiment in a line: Musca domestica test (MUSCDO surface treatment & contact assay). Conditions: 24 hours after contact, read-out: efficacy (mortality); for mortality at 4 mg/m2: surface concentration 4 mg/m^2, 30 min exposure; for mortality at 20 mg/m2: surface concentration 20 mg/m^2, 30 min exposure. Put shortly:
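Percent kill read 24 h post-contact, after adult flies (strain WHO-N) spent 30 min on a glazed tile treated with test solution (acetone, 2 mg/ml, plus 2000 ppm rapeseed oil methyl ester) and dried.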

Turning to `C[C@H](NC(=O)c1cc(C(F)(F)F)cc(C(F)(F)F)c1)c1ncnn1-c1ncc(C#N)s1` [I-2], the pest or weed control at 5 µg/cm2 in test [1] worked out at 100%. In addition, the pest or weed control at 0.004 mg in test [2] turned out to be 100%. Further, the pest or weed control at 0.02 mg in test [2] (20 μg/animal) was 100%. The “efficacy (fleas dead or moribund)” value in test [3] turned out to be 80%. Moreover, in test [4], the pest or weed control at 5 µg/cm2, 500 g/ha was found to be 100%. Moreover, in test [5], the pest or weed control at 32 µg/disc, 100 g/ha turned out to be 100%. This compound also gave a mortality at 4 ppm in test [6] of 100%. For the same compound, in test [7], the mortality at 100 g/ha turned out to be 100%. Further, in test [8], the mortality at 4 mg/m2 fell in the range of 90 to 100% and the mortality at 20 mg/m2 was in the range of 80 to 100%.
On to `Cc1nc([C@H](C)NC(=O)c2cc(C(F)(F)F)cc(C(F)(F)F)c2)n(-c2ncc(C(=O)N(C)CC3CC3)s2)n1` [I-4], for which the pest or weed control at 5 µg/cm2 in test [1] turned out to be 100%. Moreover, the pest or weed control at 0.004 mg in test [2] was 100%. Moreover, in test [3], the “efficacy (fleas dead or moribund)” value turned out to be 100%. Moreover, in test [4], the pest or weed control at 5 µg/cm2, 500 g/ha amounted to 100%. The pest or weed control at 32 µg/disc, 100 g/ha in test [5] was found to be 100%. The mortality at 4 ppm in test [6] is 100%. This compound had a mortality at 100 g/ha in test [7] of 100%. In addition, the mortality at 20 mg/m2 in test [8] was in the range of 80 to 100%.
Regarding `Cc1nc([C@H](C)NC(=O)c2cc(C(F)(F)F)cc(C(F)(F)F)c2)n(-c2ncc(C(=O)N(C)C)s2)n1` [I-5, 2-(5-{(1S)-1-[3,5-bis(trifluoromethyl)benzamido]ethyl}-3-methyl-1H-1,2,4-triazol-1-yl)-N,N-dimethyl-1,3-thiazole-5-carboxamide], in test [1], the pest or weed control at 5 µg/cm2 was found to be 100%. For the same compound, in test [2], the pest or weed control at 0.004 mg turned out to be 100%. Also, in test [3], the “efficacy (fleas dead or moribund)” value is reported as 100%. For the same compound, the pest or weed control at 5 µg/cm2, 500 g/ha in test [4] came to 100%. Also, in test [5], the pest or weed control at 32 µg/disc, 100 g/ha turned out to be 100%. For the same compound, in test [6], the mortality at 4 ppm turned out to be 100%. In addition, the mortality at 100 g/ha in test [7] is 100%. In test [8], the mortality at 4 mg/m2 lay in the range of 90 to 100%.
Turning to `CCN(C)C(=O)c1cnc(-n2nc(C)nc2[C@H](C)NC(=O)c2cc(C(F)(F)F)cc(C(F)(F)F)c2)s1` [I-6], the pest or weed control at 5 µg/cm2 in test [1] amounted to 100%. Also, the pest or weed control at 0.004 mg in test [2] was found to be 100%. Further, in test [3], the “efficacy (fleas dead or moribund)” value turned out to be 100%. For the same compound, the pest or weed control at 5 µg/cm2, 500 g/ha in test [4] came to 100%. The pest or weed control at 32 µg/disc, 100 g/ha in test [5] amounted to 100%. In addition, the mortality at 4 ppm in test [6] was 100%. Moreover, the mortality at 100 g/ha in test [7] amounted to 100%. In test [8], the mortality at 4 mg/m2 is 90 to 100% and the mortality at 20 mg/m2 was in the range of 80 to 100%.
On to `Cc1nc([C@H](C)NC(=O)c2cc(C(F)(F)F)cc(C(F)(F)F)c2)n(-c2ncc(C(=O)N(C)CC#N)s2)n1` [I-9], for which, in test [1], the pest or weed control at 5 µg/cm2 was 100%. Also, in test [2], the pest or weed control at 0.004 mg turned out to be 100%. Moreover, the “efficacy (fleas dead or moribund)” value in test [3] was 100%. Further, the pest or weed control at 5 µg/cm2, 500 g/ha in test [4] amounted to 100%. Also, the pest or weed control at 32 µg/disc, 100 g/ha in test [5] came to 100%. This compound also registered a mortality at 4 ppm in test [6] of 100%. For the same compound, in test [7], the mortality at 100 g/ha turned out to be 100%. Besides, the mortality at 20 mg/m2 in test [8] was 80 to 100%.
`Cc1nc([C@H](C)NC(=O)c2cc(C(F)(F)F)cc(C(F)(F)F)c2)n(-c2ncc(C(N)=O)s2)n1` [I-21, 2-(5-{(1S)-1-[3,5-bis(trifluoromethyl)benzamido]ethyl}-3-methyl-1H-1,2,4-triazol-1-yl)-1,3-thiazole-5-carboxamide]: the pest or weed control at 5 µg/cm2 in test [1] turned out to be 100%. Moreover, the pest or weed control at 0.004 mg in test [2] came out at 100%. Further, the “efficacy (fleas dead or moribund)” value in test [3] was found to be 100%. Moreover, in test [4], the pest or weed control at 5 µg/cm2, 500 g/ha stood at 100%. In test [5], the pest or weed control at 32 µg/disc, 100 g/ha amounted to 100%. The mortality at 4 ppm in test [6] amounted to 100%. Also, the mortality at 100 g/ha in test [7] was 100%. In test [8], the mortality at 4 mg/m2 fell in the range of 90 to 100% and the mortality at 20 mg/m2 fell in the range of 80 to 100%.
